# Measured values as given in patent US12104173B2, “Method for differentiation of human pluripotent stem cell lines in suspension culture” (AGENCY FOR SCIENCE, TECHNOLOGY AND RESEARCH, priority 2018, dated 2024).
# B1: BMP4: bone morphogenic protein; BMP4-based protocol uses 50 ng/ml BMP4 (protein, UniProt P12644 293-408, looked up)
# Bone morphogenetic protein 4: SPKHHSQRARKKNKNCRRHSLYVDFSDVGWNDWIVAPPGYQAFYCHGDCPFPLADHLNSTNHAIVQTLVNSVNSSIPKACCVPTELSAISMLYLDEYDKVVLKNYQEMVVEGCGCR
# Assays:
# Assay type in all cases: cell-based, human
# [1] = tested on: hES-3 microcarrier aggregates; test: BMP4-based vs CHIR-based differentiation: erythroblasts output per hPSC seeded
# Excerpt: Six conditions were then chosen for the detailed study; conditions 1, 2 and 4 were based on BMP4/Activin A protocols, while conditions 7, 16 and 18 were CHIR-mediated protocols (Table 1).
# [2] = tested on: hES-3-MC aggregates (agitation culture); test: DoE multifactorial mesoderm induction: % KDR+ cells by flow cytometry; details: BMP4 10 to 50 ng/ml, Activin A 0-80 ng/ml, CHIR exposure 0 to 24 hours, 4 days post initiation of differentiation
# Method: (§1) Different doses (and/or duration of exposure) of cytokines and small-molecules with known roles in inducing mesoderm and hematopoietic differentiation were evaluated using the MODDE® software for differentiation of hES-3 MC aggregate cultures initially derived under agitation. The DoE was designed to investigate effects of BMP4 (10-50 ng/ml), Activin A (0 to 80 ng/ml), CHIR (0-15 μM at 0 to 48 hours after start of mesoderm induction). These variables generated 29 culture conditions (FIG. 2A), which were tested for their effects on percent of KDR+ cells (4 days post initiation of differentiation) and the following stage of hematopoietic precursors generation (2 weeks of culture in Blast growth medium (BGM)).
# Design of experiments (DoE) using a resolution IV Fractional Factorial Design was performed using the MODDE software (Sartorius Stedim Biotech, Germany) to evaluate initial BMP4, Activin A and CHIR-99021, doses and duration of exposure for their effects on the following response factors: induction of KDR+ cells 4 days post mesoderm induction or total hematopoietic precursor cells generated 2 weeks post differentiation.
# Design of experiments (DoE) using a resolution IV Fractional Factorial Design was performed using the MODDE software (Sartorius Stedim Biotech, Germany) to evaluate initial BMP4, Activin A and CHIR-99021, doses and duration of exposure for their effects on the following response factors: induction of KDR+ cells 4 days post mesoderm induction or total hematopoietic precursors generated 2 weeks post differentiation. […] Computed model with R2 scores>0.5 indicate a model of significant fit, Q2 scores>0.1 indicate a significant model while Q2>0.5 indicate a good model for estimation of future prediction precision, model validity score of <0.25 indicate statistically significant model problems and reproducibility (the variation of the replicates compared to overall variability) should be greater than 0.5. […]
# [3] = tested on: hES-3-MC aggregates (agitation culture); test: DoE: hematopoietic precursor generation, 14 days in Blast growth medium (BGM); details: BMP4 10 to 50 ng/ml, Activin A 0-80 ng/ml, CHIR exposure 0 to 24 hours, 2 weeks in BGM
# Method: as §1
# Design of experiments (DoE) using a resolution IV Fractional Factorial Design was performed using the MODDE software (Sartorius Stedim Biotech, Germany) to evaluate initial BMP4, Activin A and CHIR-99021, doses and duration of exposure for their effects on the following response factors: induction of KDR+ cells 4 days post mesoderm induction or total hematopoietic precursors generated 2 weeks post differentiation. […] Computed model with R2 scores>0.5 indicate a model of significant fit, Q2 scores>0.1 indicate a significant model while Q2>0.5 indicate a good model for estimation of future prediction precision, model validity score of <0.25 indicate statistically significant model problems and reproducibility (the variation of the replicates compared to overall variability) should be greater than 0.5.
# Human pluripotent stem cell-microcarrier (HPSC-MC) aggregates (derived from 7 day continuous agitation conditions), equivalent to 5×10^5 cells, were seeded and differentiated in 24-well ultra-low attachment plates with Stemline II medium using multi-factorial conditions as detailed in FIG. 2A and FIG. 6A, as well as in Table 3. […]
# Following 4 days of differentiation, single cells were derived from microcarrier aggregates by treatment with TrypLE. […] Fold-expansion was calculated as total number of cells derived after 2 weeks as compared to initial seeding of 1×10^5 cells.
# [4] = hES-3 microcarrier aggregates derived from agitation condition
# [5] = hES-3 microcarrier aggregates derived from static condition
Molecule,"erythroblasts output per human pluripotent stem cell seeded [1, 4]","erythroblasts output per human pluripotent stem cell seeded [1, 5]",effect of factor on percent of KDR+ cells (DoE) [2],effect of factor on hematopoietic precursor generation (DoE) [3]
"Cc1c[nH]c(-c2cnc(NCCNc3ccc(C#N)cn3)nc2-c2ccc(Cl)cc2Cl)n1 [CHIR-99021, 6-[[2-[[4-(2,4-Dichlorophenyl)-5-(5-methyl-1H-imidazol-2-yl)-2-pyrimidinyl]amino]ethyl]amino]-3-pyridinecarbonitrile]",8.0±2.1,11.5±2.6,significant increase,significant increase
B1,1.2±0.7,7.7±1.9,did not significantly alter,did not significantly alter
